Where a name gives a salt, the structure may show the parent alone.
How the values were obtained:
IL-10 = test: Cytokine assay, IL-10 release from PBMC; assay type: cell-based; conditions: human PBMC, 20 ug/mL PHA; for IC50: supernatant at 48 hours; for inhibition at 10 µM: 48 hours
Description: (§1) The ability of the compounds described herein to inhibit pro-inflammatory cytokines or phsophodiesterases were tested.
(§2) Frozen human peripheral blood mononucleocytes (PBMC) were thawed and centrifuged. Cryopreservation media was aspirated off of the cell pellet, and the cells were resuspended in fresh culture media (CM) comprising RPMI 1640 and 10% FBS in 96 well plates. Test article was dissolved in DMSO to form a 10 mM sample (DMSO, 100%). The 10 mM samples were diluted to 100 μM in CM (DMSO, 1%), then further diluted to 10, 1, 0.1, 0.01 μM in 200 μL of CM (n=3). […] IL-23 was assayed using a commercial ELISA kit (R&D Systems).

[1] = system: T1, PDE4 partially purified from human U-937 myeloid leukemia cells; test: PDE4 Assay (enzyme from U-937 cells, [3H]cAMP); assay type: biochemical; conditions: PDE4 from U-937 cells, Tris buffer pH 7.5, 20 minutes at 25° C.
T1 construct: PDE4 partially purified from human U-937 myeloid leukemia cells was used
Description: Test article and/or vehicle was incubated with 0.2 mg enzyme and 1 mM cAMP containing 0.01 mM [3H]cAMP in Tris buffer pH 7.5 for 20 minutes at 25° C. The reaction was terminated by boiling for 2 minutes and the resulting AMP is converted to adenosine by addition of 10 mg/ml snake venom nucleotidase and further incubation at 37° C. for 10 minutes. Unhydrolyzed cAMP is bound to AG1-X2 resin, and remaining [3H]Adenosine in the aqueous phase is quantitated by scintillation counting.

IL-5 = test: Cytokine assay, IL-5 release from PBMC; assay type: cell-based; conditions: human PBMC, 20 ug/mL PHA; for IC50: supernatant at 48 hours; for inhibition at 10 µM: 48 hours
Description: as §1, §2

IFN-γ = test: Cytokine assay, IFN-γ release from PBMC; assay type: cell-based; conditions: human PBMC, 20 ug/mL PHA; for IC50: supernatant at 24 hours; for inhibition at 10 µM: 24 hours
Description: as §1, §2

TNF-α = test: Cytokine assay, TNF-α release from PBMC; assay type: cell-based; conditions: 1 μg/mL LPS; for IC50: supernatant at 24 hours
Description: as §1, §2

IL-2 = test: Cytokine assay, IL-2 release from PBMC; assay type: cell-based; conditions: human PBMC, 20 ug/mL PHA; for IC50: supernatant at 24 hours; for inhibition at 10 µM: 24 hours
Description: as §1, §2

Structure (SMILES) | IC50 (IL-10) | IC50 [1] | IC50 (IL-5) | IC50 (IFN-γ) | IC50 (TNF-α; Homo sapiens, PBMC, 24 h) | IC50 (IL-2) | inhibition at 10 µM (IFN-γ) | IC50 (TNF-α; human PBMC, hydrochloride) | inhibition at 10 µM (IL-10) | inhibition at 10 µM (IL-5) | inhibition at 10 µM (TNF-α; human PBMC, 24 hours, 10 μM) | inhibition at 10 µM (IL-2)
N#Cc1ccc(Oc2ccc3c(c2)B(O)OC3)cc1 [C18, 6-(4-Cyanophenoxy)-1,3-dihydro-1-hydroxy-2,1-benzoxaborole] | > 10 µM | > 10 µM | > 10 µM | > 10 µM | > 10 µM | > 10 µM | – | – | – | – | – | –
COc1ccc(Oc2ccc3c(c2)B(O)OC3)cc1 [C31, 6-(4-Methoxyphenoxy)-1,3-dihydro-1-hydroxy-2,1-benzoxaborole] | > 10 µM | 4 to 10 µM | > 10 µM | – | > 10 µM | > 10 µM | 30 to 60% | – | – | – | – | –
O=C(O)c1ccc(Oc2ccc3c(c2)COB3O)cc1 [C38, 4-(1-hydroxy-1,3-dihydro-benzo[c][1,2]oxaborol-5-yloxy)-benzoic acid] | > 10 µM | 4 to 10 µM | > 10 µM | > 10 µM | > 10 µM | > 10 µM | – | – | – | – | – | –
N#Cc1ccc(COc2ccc3c(c2)COB3O)cc1 [D1, 5-(4-Cyanobenzyloxy)-1,3-dihydro-1-hydroxy-2,1-benzoxaborole] | > 10 µM | 1 to 4 µM | 1 to 4 µM | 1 to 4 µM | 4 to 10 µM | 1 to 4 µM | – | – | – | – | – | –
N#Cc1ccc(Oc2ccc3c(c2)COB3O)cc1Cl [D2, 5-(3-Chloro-4-cyanophenoxy)-1-hydroxy-2,1-benzoxaborole] | > 10 µM | < 1 µM | < 1 µM | < 1 µM | < 1 µM | < 1 µM | – | – | – | – | – | –
Cc1cc(Oc2ccc3c(c2)COB3O)ccc1C#N [D3, 5-(4-Cyano-3-methylphenoxy)-1,3-dihydro-1-hydroxy-2,1-benzoxaborole] | > 10 µM | < 1 µM | < 1 µM | < 1 µM | < 1 µM | < 1 µM | – | – | – | – | – | –
O=C1NC(=O)c2cc(Oc3ccc4c(c3)COB4O)ccc21 [D9, 5-(1,3-Dihydro-1-hydroxy-2,1-benzoxaborol-5-yloxy)isoindoline-1,3-dione] | < 1 µM | < 1 µM | < 1 µM | < 1 µM | < 1 µM | < 1 µM | – | – | – | – | – | –
CC(=O)Oc1cc(Oc2ccc3c(c2)COB3O)ccc1C#N [D11, 5-(4-Cyano-3-acetoxyphenoxy)-1,3-dihydro-1-hydroxy-2,1-benzoxaborole] | 1 to 4 µM | < 1 µM | 4 to 10 µM | 1 to 4 µM | < 1 µM | 1 to 4 µM | – | – | – | – | – | –
N#Cc1c(Cl)cccc1Oc1ccc2c(c1)COB2O [D13, 5-(3-Chloro-2-cyanophenoxy)-1,3-dihydro-1-hydroxy-2,1-benzoxaborole] | 1 to 4 µM | 1 to 4 µM | 1 to 4 µM | 1 to 4 µM | 4 to 10 µM | 1 to 4 µM | – | – | – | – | – | –
N#Cc1ccc(Oc2ccc3c(c2)COB3O)c(CNC=O)c1 [D25, 5-[4-Cyano-2-(formylaminomethyl)phenoxy]-1,3-dihydro-1-hydroxy-2,1-benzoxaborole] | 1 to 4 µM | < 1 µM | < 1 µM | 1 to 4 µM | 4 to 10 µM | < 1 µM | – | – | – | – | – | –
N#Cc1ccc(Oc2ccc3c(c2)COB3O)c(CN)c1 [D26, 5-(2-Aminomethyl-4-cyanophenoxy)-1,3-dihydro-1-hydroxy-2,1-benzoxaborole hydrochloride] | > 10 µM | 1 to 4 µM | 4 to 10 µM | 4 to 10 µM | – | 1 to 4 µM | – | > 10 µM | – | – | – | –
NCc1ccc(Oc2ccc3c(c2)COB3O)cc1 [D59, (4-(1-Hydroxy-1,3-dihydrobenzo[c][1,2]oxaborol-5-yloxy)phenyl) methanaminium chloride] | – | > 10 µM | – | – | – | – | – | – | < 30% | 30 to 60% | 30 to 60% | 60 to 90%
N#Cc1ccc(Oc2ccc3c(c2)COB3O)c(CN)c1 [D138, 5-(2-Aminomethyl-4-cyanophenoxy)-1,3-dihydro-1-hydroxy-2,1-benzoxaborole hydrochloride] | – | – | – | – | – | – | 30 to 60% | 1 to 4 µM | 30 to 60% | 60 to 90% | – | 60 to 90%

From patent US9012431B2, “Boron-containing small molecules as anti-inflammatory agents” (Anacor Pharmaceuticals, Inc., priority 2008, dated 2015)
